Experiment [1] concerns the target T1, cyclin D1/cdk 4 enzyme (Homo sapiens, UniProt P11802).
T1 construct: made in house; host or cells: Sf9 insect cells, recombinant baculovirus
In words: CDK4 ELISA kinase assay (phospho-Rb ser 795 detection). It is filed as biochemical. As to conditions: In Vitro Enzyme Assay, cyclin D1/cdk 4, read-out: CDK4 IC50. An outline of the steps: (§1)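 GST-Rb C-terminal fragment coated on wells; kinase reaction: 200 μM ATP, 0.5 mg/ml BSA, HEPES pH 7.5, 10 mM MgCl2, baculovirus/Sf9 cyclin-CDK, 30° C, 1 h. Readout anti-phospho-Rb Ser795, HRP, TMB, A450. Test compound 10 ug/ml final.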
(ELISA stands for enzyme-linked immunosorbent assay.)

Experiment [2] deals with T2, cyclin E/CDK2 enzyme (Homo sapiens, UniProt P24941).
T2 construct: made in house; host or cells: Sf9 insect cells, recombinant baculovirus
In words: CDK2 ELISA kinase assay (phospho-Rb ser 795 detection). The experiment is classed as biochemical. As to conditions: In Vitro Enzyme Assay, cyclin E/CDK2, read-out: CDK2 IC50. The gist of the method:
as §1

Experiment [3] deals with T3, cyclin B/CDK1 enzyme (Homo sapiens, UniProt P06493).
T3 construct: purchased New England BioLabs; host or cells: Sf9 insect cells, recombinant baculovirus
T3 sequence (P06493 whole entry): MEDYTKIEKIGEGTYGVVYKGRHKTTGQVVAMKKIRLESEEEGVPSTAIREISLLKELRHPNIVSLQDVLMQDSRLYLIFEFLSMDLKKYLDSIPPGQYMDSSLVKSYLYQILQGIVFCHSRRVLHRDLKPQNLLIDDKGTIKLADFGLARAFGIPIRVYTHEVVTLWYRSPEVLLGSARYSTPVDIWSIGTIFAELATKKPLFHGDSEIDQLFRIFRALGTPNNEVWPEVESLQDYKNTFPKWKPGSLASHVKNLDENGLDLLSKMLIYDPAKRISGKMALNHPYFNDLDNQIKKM
T3 sequence (P14635 whole entry partner): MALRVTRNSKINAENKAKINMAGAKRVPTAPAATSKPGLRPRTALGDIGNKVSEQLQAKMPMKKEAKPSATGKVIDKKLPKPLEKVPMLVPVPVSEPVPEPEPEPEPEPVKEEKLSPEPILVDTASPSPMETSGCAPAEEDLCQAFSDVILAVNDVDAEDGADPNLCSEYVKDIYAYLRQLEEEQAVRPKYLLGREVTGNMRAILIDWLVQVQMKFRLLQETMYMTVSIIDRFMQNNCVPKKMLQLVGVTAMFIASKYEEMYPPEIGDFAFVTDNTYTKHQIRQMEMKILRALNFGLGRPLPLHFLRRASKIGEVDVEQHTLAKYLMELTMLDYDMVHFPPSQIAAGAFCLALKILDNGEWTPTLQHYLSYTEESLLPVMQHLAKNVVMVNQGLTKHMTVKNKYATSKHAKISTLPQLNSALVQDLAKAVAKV
In words: CDK1 ELISA kinase assay (phospho-Rb ser 795 detection). Conditions: In Vitro Enzyme Assay, cyclin B/CDK1, read-out: CDK1 IC50. It is filed as biochemical. An outline of the steps: as §1

The test system of experiment [4] is BT474. In words: Cytotoxicity assay (SRB), BT474. As to conditions: BT474 cells, 6 days, SRB, read-out: In Vitro Cellular Activity IC50 BT474. It is filed as cell-based. The gist of the method:
(§2)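 Cells seeded overnight at 37 °C, 7% CO2 (BT474 12000, HCT-116 4000, LoVo and MCF-7 6000 cells/well) in RPMI 1640 with 5% FBS, then exposed to compound dilutions for 3 days (BT474 6 days). Survival versus untreated controls by TCA fixation and SRB staining, absorbance 540 nm.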

Experiment [5] concerns HCT-116. In words: Cytotoxicity assay (SRB), HCT-116. It is filed as cell-based. As to conditions: HCT116 cells, 3 days, SRB, read-out: In Vitro Cellular Activity IC50 HCT116. An outline of the steps: as §2
For experiment [6], the system named is LoVo. In words: Cytotoxicity assay (SRB), LoVo. The experiment is classed as cell-based. Conditions: LoVo cells, 3 days, SRB, read-out: In Vitro Cellular Activity IC50 LOVO. The gist of the method:
as §2

The subject of experiment [7] is MCF-7. In words: Cytotoxicity assay (SRB), MCF-7. The experiment is classed as cell-based. As to conditions: MCF-7 cells, 3 days, SRB, read-out: In Vitro Cellular Activity IC50 MCF-7. An outline of the steps:
as §2

Where two headings read alike, the source gives them in different places.

T1 sequence (P11802 whole entry, species assumed): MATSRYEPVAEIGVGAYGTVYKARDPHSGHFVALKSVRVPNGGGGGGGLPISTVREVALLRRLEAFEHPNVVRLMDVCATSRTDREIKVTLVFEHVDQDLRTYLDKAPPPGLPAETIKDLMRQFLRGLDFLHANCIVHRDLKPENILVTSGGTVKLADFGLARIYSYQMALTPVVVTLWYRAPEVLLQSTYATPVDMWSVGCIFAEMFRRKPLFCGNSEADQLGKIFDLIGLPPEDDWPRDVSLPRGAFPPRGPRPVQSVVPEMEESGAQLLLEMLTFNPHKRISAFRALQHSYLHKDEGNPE
T1 sequence (P24385 whole entry partner, species assumed): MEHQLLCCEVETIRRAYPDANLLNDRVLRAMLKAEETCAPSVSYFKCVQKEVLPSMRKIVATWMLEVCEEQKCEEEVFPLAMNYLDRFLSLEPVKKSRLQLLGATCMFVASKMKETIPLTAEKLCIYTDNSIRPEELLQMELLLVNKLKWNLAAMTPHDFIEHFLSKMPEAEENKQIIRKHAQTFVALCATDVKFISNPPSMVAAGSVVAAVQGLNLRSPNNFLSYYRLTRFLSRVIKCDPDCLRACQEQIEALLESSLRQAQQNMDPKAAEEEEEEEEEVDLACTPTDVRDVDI

Usually IC50 stands for the concentration at which inhibition is half-maximal. As for `O=C1NC(=O)c2ccc(-c3nccs3)cc2/C1=C/Nc1ccc(CN2CCC[C@H]2CO)cc1` [Example 472, 4-{[4-(2-Hydroxymethyl-pyrrolidin-1-ylmethyl)-phenylamino]-methylene}-6-thiazol-2-yl-4H-isoquinoline-1,3-dione], the IC50 in experiment [1] is 600 nM; in experiment [2], more than 50000 nM; in experiment [3], more than 50000 nM; in experiment [4] (Homo sapiens, BT-474, 144 h) it was 9100 nM; in experiment [5] (Homo sapiens, HCT-116, 72 h), 5000 nM; in experiment [6] (Homo sapiens, LoVo, 72 h), 8900 nM. The IC50 in experiment [7] (Homo sapiens, MCF7, 72 h) amounted to 14200 nM.

With `CCN1CCCC1c1ccc(N/C=C2\C(=O)NC(=O)c3ccc(-c4ccoc4)cc32)cc1` (centres unmarked) [Example 473, 4-{[4-(1-Ethyl-pyrrolidin-2-yl)-phenylamino]-methylene}-6-furan-3-yl-4H-isoquinoline-1,3-dione], the concentration for half-maximal inhibition (IC50) in experiment [1] was 50 nM; in experiment [2], more than 50000 nM; in experiment [3], more than 50000 nM; in experiment [4] (Homo sapiens, BT-474, 144 h), 1500 nM; in experiment [5] (Homo sapiens, HCT-116, 72 h), 2400 nM; in experiment [6] (Homo sapiens, LoVo, 72 h), 2300 nM. Also, the IC50 in experiment [7] (Homo sapiens, MCF7, 72 h) is 2000 nM.

As to `CN1CCN(c2ncc(N/C=C3\C(=O)NC(=O)c4ccc(I)cc43)cn2)CC1` [Example 475, (4Z)-6-Iodo-4-({[2-(4-methylpiperazin-1-yl)pyrimidin-5-yl]amino}methylene)isoquinoline-1,3(2H,4H)-dione], the half-maximal inhibitory concentration (IC50) in experiment [1] was 700 nM; in experiment [2], more than 50000 nM; in experiment [3], more than 50000 nM; in experiment [4] (Homo sapiens, BT-474, 144 h), 8100 nM; in experiment [5] (Homo sapiens, HCT-116, 72 h) it was 3200 nM; in experiment [6] (Homo sapiens, LoVo, 72 h), 7700 nM. Moreover, the IC50 in experiment [7] (Homo sapiens, MCF7, 72 h) came out at 2200 nM.

For `O=C1NC(=O)c2ccc(I)cc2/C1=C/Nc1ccc(CN2CCS(=O)(=O)CC2)cc1` [Example 483, 4-{[4-(1,1-Dioxo-1-thiomorpholin-4-ylmethyl)-phenylamino]-methylene}-6-iodo-4H-isoquinoline-1,3-dione], the IC50 in experiment [1] is 16100 nM; in experiment [2], more than 50000 nM; in experiment [3] it was more than 50000 nM; in experiment [4] (Homo sapiens, BT-474, 144 h), more than 50000 nM; in experiment [5] (Homo sapiens, HCT-116, 72 h), 13100 nM; in experiment [6] (Homo sapiens, LoVo, 72 h), more than 50000 nM. Further, the IC50 in experiment [7] (Homo sapiens, MCF7, 72 h) is more than 50000 nM.

Regarding `CN1CCN(c2ncc(N/C=C3\C(=O)NC(=O)c4ccc(-c5ccoc5)cc43)cn2)CC1` [Example 484, (4Z)-6-(3-Furyl)-4-({[2-(4-methylpiperazin-1-yl)pyrimidin-5-yl]amino}methylene)isoquinoline-1,3(2H,4H)-dione], the IC50 was 250 nM in experiment [1]; more than 50000 nM in experiment [2]; 31000 nM in experiment [3]; 2490 nM in experiment [4] (Homo sapiens, BT-474, 144 h); 1130 nM in experiment [5] (Homo sapiens, HCT-116, 72 h); 1240 nM in experiment [6] (Homo sapiens, LoVo, 72 h). Also, the IC50 in experiment [7] (Homo sapiens, MCF7, 72 h) was found to be 3230 nM.

In the case of `CCCOc1ccc(CN/C=C2\C(=O)NC(=O)c3ccc(-c4ccoc4)cc32)cc1O` [Example 485, (4Z)-6-(3-Furyl)-4-{[(3-hydroxy-4-propoxybenzyl)amino]methylene}isoquinoline-1,3(2H,4H)-dione], the 50% inhibitory concentration (IC50) was 60 nM in experiment [1]; more than 50000 nM in experiment [2]; more than 50000 nM in experiment [3]; 1070 nM in experiment [4] (Homo sapiens, BT-474, 144 h); 1360 nM in experiment [5] (Homo sapiens, HCT-116, 72 h); 940 nM in experiment [6] (Homo sapiens, LoVo, 72 h). In experiment [7] (Homo sapiens, MCF7, 72 h), the IC50 was 1420 nM.

`O=C1NC(=O)c2ccc(I)cc2/C1=C/NCc1ccc(-c2ccccc2)c(O)c1` [Example 490, 4-{[(2-Hydroxy-biphenyl-4-ylmethyl)-amino]-methylene}-6-iodo-4H-isoquinoline-1,3-dione]: the IC50 came out at 130 nM in experiment [1]; 15100 nM in experiment [2]; 47800 nM in experiment [3]; 260 nM in experiment [4] (Homo sapiens, BT-474, 144 h); 420 nM in experiment [5] (Homo sapiens, HCT-116, 72 h); 340 nM in experiment [6] (Homo sapiens, LoVo, 72 h). In addition, in experiment [7] (Homo sapiens, MCF7, 72 h), the IC50 was 880 nM.

As to `O=C1NC(=O)c2ccc(-c3ccoc3)cc2/C1=C/Nc1ccc(CN2CCC(CCO)CC2)cc1` [Example 491, (4Z)-6-(3-Furyl)-4-{[(4-{[4-(2-hydroxyethyl)piperidin-1-yl]methyl}phenyl)amino]methylene}isoquinoline-1,3(2H,4H)-dione], the IC50 in experiment [1] is 50 nM; in experiment [2], more than 50000 nM; in experiment [3], more than 50000 nM; in experiment [4] (Homo sapiens, BT-474, 144 h) it was 1200 nM; in experiment [5] (Homo sapiens, HCT-116, 72 h), 3500 nM; in experiment [6] (Homo sapiens, LoVo, 72 h), 2700 nM. In addition, the IC50 in experiment [7] (Homo sapiens, MCF7, 72 h) was 1000 nM.

As for `O=Cc1ccc(-c2ccc3c(c2)/C(=C/Nc2ccc(CN4CCCCC4)cc2)C(=O)NC3=O)o1` [Example 492, 5-[(4Z)-1,3-Dioxo-4-({[4-(piperidin-1-ylmethyl)phenyl]amino}methylene)-1,2,3,4-tetrahydroisoquinolin-6-yl]-2-furaldehyde], the 50% inhibitory concentration (IC50) in experiment [1] was 240 nM; in experiment [2], more than 50000 nM; in experiment [3], more than 50000 nM; in experiment [4] (Homo sapiens, BT-474, 144 h), 3300 nM; in experiment [5] (Homo sapiens, HCT-116, 72 h), 1000 nM; in experiment [6] (Homo sapiens, LoVo, 72 h), 3000 nM. Besides, in experiment [7] (Homo sapiens, MCF7, 72 h), the IC50 is 4100 nM.

As for `O=C1NC(=O)c2ccc(-c3ccoc3)cc2/C1=C/NCc1ccc(-c2ccccc2)c(O)c1` [Example 494, 6-Furan-3-yl-4-{[(2-hydroxy-biphenyl-4-ylmethyl)-amino]-methylene}-4H-isoquinoline-1,3-dione], the IC50 stood at 30 nM in experiment [1]; 18400 nM in experiment [2]; 42500 nM in experiment [3]; 530 nM in experiment [4] (Homo sapiens, BT-474, 144 h); 580 nM in experiment [5] (Homo sapiens, HCT-116, 72 h); 520 nM in experiment [6] (Homo sapiens, LoVo, 72 h). Also, the IC50 in experiment [7] (Homo sapiens, MCF7, 72 h) turned out to be 1000 nM.

As to `CCCCc1ccc(CN/C=C2\C(=O)NC(=O)c3ccc(I)cc32)cc1O` [Example 495, 4-[(4-Butyl-3-hydroxy-benzylamino)-methylene]-6-iodo-4H-isoquinoline-1,3-dione], the IC50 was 300 nM in experiment [1]; more than 50000 nM in experiment [2]; more than 50000 nM in experiment [3]; 4500 nM in experiment [4] (Homo sapiens, BT-474, 144 h); 4900 nM in experiment [5] (Homo sapiens, HCT-116, 72 h); 6300 nM in experiment [6] (Homo sapiens, LoVo, 72 h). Besides, in experiment [7] (Homo sapiens, MCF7, 72 h), the IC50 is 3300 nM.

Take `O=C1NC(=O)c2ccc(I)cc2/C1=C/NCc1cc(O)ccc1I` [Example 496, 4-[(5-Hydroxy-2-iodo-benzylamino)-methylene]-6-iodo-4H-isoquinoline-1,3-dione]: the IC50 in experiment [1] is 2700 nM; in experiment [2], more than 50000 nM; in experiment [3] it was more than 50000 nM; in experiment [4] (Homo sapiens, BT-474, 144 h), 7400 nM; in experiment [5] (Homo sapiens, HCT-116, 72 h) it was 2600 nM; in experiment [6] (Homo sapiens, LoVo, 72 h), 3100 nM. Further, the IC50 in experiment [7] (Homo sapiens, MCF7, 72 h) came out at 5400 nM.

In the case of `CN1CCN(c2ccc(N/C=C3\C(=O)NC(=O)c4ccc(-c5ccoc5)cc43)c(F)n2)CC1` [Example 497, (4Z)-4-({[2-Fluoro-6-(4-methylpiperazin-1-yl)pyridin-3-yl]amino}methylene)-6-(3-furyl)isoquinoline-1,3(2H,4H)-dione], the IC50 in experiment [1] was 370 nM; in experiment [2] it was more than 50000 nM; in experiment [3], more than 50000 nM; in experiment [4], 2700 nM; in experiment [5], 2600 nM; in experiment [6], 3200 nM. Besides, the IC50 in experiment [7] stood at 1400 nM.

Turning to `CN1CCN(c2ccc(N/C=C3\C(=O)NC(=O)c4ccc(-c5ccoc5)cc43)c(F)n2)CC1` [Example 498, (4Z)-4-({[2-Fluoro-6-(4-methylpiperazin-1-yl)pyridin-3-yl]amino}methylene)-6-(3-furyl)isoquinoline-1,3(2H,4H)-dione], the IC50 in experiment [1] was determined as 210 nM; in experiment [2], 32400 nM; in experiment [3], 19300 nM; in experiment [4], 1000 nM; in experiment [5], 1100 nM; in experiment [6], 1600 nM. Besides, the IC50 in experiment [7] was 3500 nM.

(Values after patent publication US7713994B2 (Wyeth LLC, priority 2005, dated 2010).)
